Here are results for 5 molecules from publication PMC7756582, “Prodrugs of γ‐Alkyl‐Modified Nucleoside Triphosphates: Improved Inhibition of HIV Reverse Transcriptase” (Angewandte Chemie (International Ed. in English), 2020).

The structures appear in SMILES notation. Like-named read-outs stand apart in the source and are kept apart here.

For one data set, the system named is HIV-1(IIIB). Nature of the data set: Anti-HIV activity assay, HIV-1-infected wild-type CEM/0 cell cultures. Conditions: Human immunodeficiency virus 1, IIIB, CCRF-CEM, read-out: EC50 CEM/0 HIV-1. The class given is cell-based. As to the method:
(§1) γ‐(AB,alkyl)‐d4TTP prodrugs 6 and the γ‐alkyl‐d4TTPs 7 were evaluated for their ability to inhibit the replication of HIV in HIV‐1‐ or HIV‐2‐infected wild‐type CEM/0 as well as mutant thymidine‐kinase‐deficient CEM cell cultures (CEM/TK^−). For comparison, two TriPPPro derivatives 5 were also included in this assay.
(§2) Anti-HIV activity assay: Inhibition of HIV-1(IIIB)- and HIV-2(ROD)-induced cytopathicity in wild-type CEM/0 and thymidine kinase-deficient CEM/TK- cell cultures was measured in microtiter 96-well plates containing ~3·105 CEM cells/mL infected with 100 CCID50 of HIV per milliliter and containing appropriate dilutions of the test compounds. After 4−5 days of incubation at 37 °C in a CO2-controlled humidified atmosphere, CEM giant (syncytium) cell formation was examined microscopically. […]
(§3) was defined as the compound concentration required to inhibit HIV-induced giant cell formation by 50%. […]
(§4) The result was visualized by fluorescence imaging. […]
as §4

Data set [1] is described as follows: Cytotoxicity: inhibition of CD4+ T-cell (CEM) proliferation. The class given is cell-based. Conditions: human, CEM/0 cells (CD4+ T-cells), 50 % cytostatic concentration, mean±SD, n=2-3.
The subject of data set [2] is HIV-2(ROD). In words: Anti-HIV activity assay, HIV-2-infected thymidine-kinase-deficient CEM/TK- cell cultures. The class given is cell-based. Conditions: for EC50: mean±SD, n=2-3. The procedure: as §1, §2, §3, §4, §4
In data set [3] the test system is HIV-2(ROD). Nature of the data set: Anti-HIV activity assay, HIV-2-infected wild-type CEM/0 cell cultures. The data set is classed as cell-based. Conditions: Human immunodeficiency virus 2, CCRF-CEM, read-out: EC50 CEM/0 HIV-2. The procedure: as §1, §2, §3, §4, §4
A short description of data set [4]: Chemical hydrolysis in aqueous phosphate buffer (PBS, pH 7.3). The data set is classed as physicochemical. Conditions: for half-life at 0.92 mM: phosphate buffered saline (PBS), read-out: PBS pH 7.3 t 1/2 (converted); for half-life at 0.92 mM / PBS pH 7.3 t 1/2: aqueous 25 mM phosphate buffer, pH 7.3, 37 °C, removal of AB group, n.h. = no hydrolysis observed through cleavage of AB-mask. The procedure:
γ‐(AB,alkyl)‐NTP prodrugs 6 and γ‐alkyl‐NTPs 7 were incubated in aqueous phosphate buffer (PBS, 25 mM, pH 7.3), or were exposed to pig liver esterase (PLE) in phosphate buffer (PBS) and to human CD4^+ T‐lymphocyte cell extracts to study their stability and the product distribution. The hydrolysis mixtures were analyzed by means of analytical rp‐18‐HPLC. The calculated half‐lives of prodrugs 6 (Table 1, t 1/2) reflect the removal of the bioreversible AB group to yield γ‐alkyl‐NTPs 7. Possible hydrolysis pathways and products are summarized in Scheme 4.
As hydrolysis products, a predominant formation of γ‐alkyl‐d4TTPs 7 and a very small amount of d4TDP […] was detected (approximately 3 %). After consumption of the starting material, no further increase of d4TDP concentration was observed. This supports the hypothesis that only the double‐γ‐esterified d4TTP prodrugs 6 were prone to a bond breakage between the γ‐ and β‐phosphate. […] In contrast to previous studies with TriPPPro‐NTPs 5 containing a second cleavable mask (first generation NTP prodrugs),[ ^23 , ^24 , ^25 ] no d4TTP was detected in these studies using 6 or 7. A side reaction occurred during the studies using compounds 7 that led to the formation of thymine by the cleavage of the glycosidic bond as reported before.[ ^19 , ^22 ]
ProLab 300 from Schott Co.. Thermomixer: Eppendorf Thermomixer 5436 and CellMedia Thermoschüttler basic were used. […]
Chemical hydrolysis of prodrugs of γ-(AB,alkyl) d4TTP 6 as well as the γ-alkyl-NTPs 7,15:
Stock solutions (50mM in DMSO-d6) of compounds 6,7 were prepared. After dilution of 11 µL stock solution with 100 µL milliQ water and 189 µL DMSO-d6 to 1.9mM hydrolysis solutions the reaction was started by addition of 300 µL phosphate buffer saline (PBS, 50mM, pH 7.3). The solution was incubated at 37 C in a thermomixer. An initial aliquot (25 µL) was taken directly and analyzed by analytical HPLC at 265-266 nm. Further aliquots were taken for monitoring the kinetic hydrolysis. The exponential decay curves (pseudo-first order) based on absolute integral values were calculated with commercially available software (OriginPro 9.0G) and yielded the half-lives t1/2 of the prodrugs via one determination. […]
(§5) The calculation of t1/2 was performed analogously to that for the chemical hydrolysis studies.
(§6) Preparation of cell extracts: Human CD4+ T-lymphocyte CEM cells were grown in RPMI-1640-based cell culture medium to a final density of ~3·10^6 cells/ml. Then, cells were centrifuged for 10 min at 1,250 rpm at 4 °C, washed twice with cold PBS, and the pellet was re-suspended at 10^8 cells/ml and sonicated (Hielscher Ultrasound Techn., 100% amplitude, 3·times for 10 sec) to destroy cell integrity. The resulting cell suspension was then centrifuged at 10,000 rpm to remove cell debris, and the supernatant divided in aliquots before being frozen at -80 C and used.
(§7) (1 picture or pasted object on this page, not shown here)

The subject of the next data set is pig liver esterase (PLE). Nature of the data set: Enzymatic hydrolysis with pig liver esterase (PLE). The data set is classed as in vitro ADME. Conditions: pH 7.3, 37 °C; for half-life at 0.45 mM: pig liver esterase (PLE) in PBS, pig liver esterase in PBS, read-out: t 1/2 with PLE (cleavage of acyloxybenzyl masking unit); for cleavage of the alkyl residue by esterase: PLE in PBS. As to the method:
Next, the enzymatic stability of prodrugs γ‐(AB‐C4,alkyl‐C18)‐d4TTP 6 cz and γ‐(AB‐C15,alkyl‐C4)‐d4TTP 6 ew was examined by incubation with PLE, which is used as a model enzyme for studying the esterase activation of the prodrugs, in PBS, pH 7.3 at 37 °C. […] This proves our initial concept of introducing an enzyme (esterase)‐stable group to the γ‐phosphate unit.
ProLab 300 from Schott Co.. Thermomixer: Eppendorf Thermomixer 5436 and CellMedia Thermoschüttler basic were used.
Fluorescent Imager: ChemiDoc™ MP Imaging System (170-8280) from Bio-Rad Co. was used for primer extension study.
Electrophoresis: Thermo Fisher OwlTM S4S Aluminum-Backed Sequencer System. Power supply: Consort EV2230 Gel […]
Further aliquots were taken for monitoring the kinetic hydrolysis. The exponential decay curves (pseudo-first order) based on absolute integral values were calculated with commercially available software (OriginPro 9.0G) and yielded the half-lives t1/2 of the prodrugs via one determination.
Enzymatic hydrolysis of compounds 6,7 with pig liver esterase (PLE):
10 µL 50 mM DMSO stock solution of compounds 6,7 was diluted to 6.0 mM hydrolysis solution by addition of 31.7 µL DMSO and 41.7 µL ultrapure water. Then 83.3 µl of the 6.0 mM solution was diluted with 125 µL DMSO and 833 µl 50 mM PBS buffer (pH 7.3).
The reaction was started by addition of 62.5 µl of PLE in PBS buffer (3 mg/mL) and the mixture was incubated with 800 rpm at 37 °C in a thermomixer. At different times, aliquots (100 µl) were taken and the reaction was stopped by addition to […] MeOH. The mixture was kept for 5 min on ice followed by centrifugation for 5 min (13000 rpm). The mixture was filtered (Chromafil RC-20/15 MS, […]) and stored in liquid nitrogen. When testing, the samples were defrosted and injection volume with 80 µL was used for HPLC […]
as §5, §6, §7

The mark [5] stands for this setting: Human immunodeficiency virus 2, CEM-TK(-), read-out: EC50 CEM/TK− HIV-2, thymidine-kinase-deficient CEM/TK− cells, HIV-2.
Setting [6] is: wild-type CEM/0 cells, HIV-1, mean±SD, n=2-3.
Setting [7] is: Human immunodeficiency virus 2, thymidine-kinase-deficient CEM/TK− cells, HIV-2, read-out: EC50 CEM/TK− HIV-2.
The mark [8] stands for this setting: wild-type CEM/0 cells, HIV-2, mean±SD, n=2-3.
Where [9] appears, read: read-out: EC50 CEM/TK− HIV-2, thymidine-kinase-deficient CEM/TK− cells, HIV-2.

Regarding `Cc1cn(C2C=CC(COP(=O)(O)OP(=O)(O)OP(=O)(O)O)O2)c(=O)[nH]c1=O` (stereo not shown) [2 t, d4TTP, reference compound], the EC50 in the data set on HIV-1(IIIB) was 1050 ± 350 nM; in the data set on HIV-2(ROD) [2] (setting [5]) it was over 100 µM; with HIV-2(ROD) [3] it was 400 ± 260 nM. The molecule also showed a CC50 in data set [1] of over 100 µM. Further, the “antiviral activity in CEM/TK− cell cultures (in words)” value (from here on “antiviral activity … (in words)”) with HIV-2(ROD) [2] (HIV-2-infected CEM/TK− cells) is “inactive”.
Regarding `CCCCCCCCCCCCCCCCCCOP(=O)(OCc1ccc(OC(=O)CCCC)cc1)OP(=O)(O)OP(=O)(O)OCC1C=CC(n2cc(C)c(=O)[nH]c2=O)O1` (stereo not shown) [6 cz, γ‐(AB‐C4,alkyl‐C18)‐d4TTP], the EC50 with HIV-1(IIIB) (setting [6]) came out at 180 ± 90 nM; in the data set on HIV-2(ROD) [2] (setting [7]), 0.17 µM; with HIV-2(ROD) [3] (setting [8]), 160 ± 100 nM. In data set [1], it took 13 ± 1 µM to reach half-maximal cytotoxicity (CC50). In addition, in data set [4], the half-life at 0.92 mM was 9.88 days. Moreover, the half-life at 0.45 mM in the data set on pig liver esterase (PLE) turned out to be 8.1 min.
In the case of `CCCCCCCCCCCCCCCC(=O)Oc1ccc(COP(=O)(OCCCC)OP(=O)(O)OP(=O)(O)OCC2C=CC(n3cc(C)c(=O)[nH]c3=O)O2)cc1` (stereo not shown) [6 ew, γ‐(AB‐C15,alkyl‐C4)‐d4TTP], the EC50 is 330 ± 110 nM with HIV-1(IIIB) (setting [6]), over 10 µM with HIV-2(ROD) [2] (setting [7]) and 240 ± 10 nM with HIV-2(ROD) [3] (setting [8]). Moreover, in data set [1], half-maximal cytotoxicity (CC50) was put at 21 ± 2 µM. The “antiviral activity … (in words)” value in the data set on HIV-2(ROD) [2] (HIV-2-infected CEM/TK− cells) was “inactive”. Also, the half-life at 0.92 mM in data set [4] is 8.25 days. For the same molecule, the half-life at 0.45 mM in the data set with pig liver esterase (PLE) came to 25.5 min.
For the molecule `CCCCOP(=O)(O)OP(=O)(O)OP(=O)(O)OCC1C=CC(n2cc(C)c(=O)[nH]c2=O)O1` (stereo not shown) [7 w, γ‐C4‐d4TTP], the EC50 in the data set with HIV-1(IIIB) is 950 ± 510 nM; in the data set with HIV-2(ROD) [2] (setting [5]), 35 µM; in the data set on HIV-2(ROD) [2] (setting [9]), 36 ± 29 µM; with HIV-2(ROD) [3] it was 290 ± 150 nM. The molecule further displayed a 50% cytotoxic concentration (CC50) in data set [1] of over 100 µM. For the same molecule, the “antiviral activity … (in words)” value in the data set on HIV-2(ROD) [2] (HIV-2-infected CEM/TK− cells) is “almost inactive”. Besides, in data set [4], the “PBS pH 7.3 t 1/2” value was “n.h.^[c]”. For the same molecule, the “cleavage of the alkyl residue by esterase” value in the data set with pig liver esterase (PLE) is given as “no cleavage of the alkyl residue”.
Take `CCCCCCCCCCCCCCCCCCOP(=O)(O)OP(=O)(O)OP(=O)(O)OCC1C=CC(n2cc(C)c(=O)[nH]c2=O)O1` (stereo not shown) [7 z, γ‐C18‐d4TTP]: the EC50 was found to be 110 ± 42 nM in the data set on HIV-1(IIIB), 0.055 µM in the data set on HIV-2(ROD) [2] (setting [5]), 0.05 ± 0.027 µM in the data set on HIV-2(ROD) [2] (setting [9]) and 110 ± 84 nM with HIV-2(ROD) [3]. In addition, the CC50 in data set [1] was determined as 86 ± 3 µM. Further, the “antiviral activity improved versus TriPPPro intermediates comprising a C17 aliphatic chain” value in the data set with HIV-2(ROD) [2] (HIV-2-infected CEM/TK− cells) came to 30 fold. Also, the “antiviral activity … (in words)” value in the data set with HIV-2(ROD) [2] (HIV-2-infected CEM/TK− cells) is listed as “highly potent”. The “more active than d4T” value in the data set on HIV-2(ROD) [2] (HIV-2-infected CEM/TK− cells) was determined as 2700 fold. Besides, the “calculated half-life in PBS hydrolysis (decrease by thymine formation, cleavage of the glycosidic bond)” value in data set [4] (PBS pH 7.3) is reported as “about 1500 h”. Besides, the “PBS pH 7.3 t 1/2” value in data set [4] is “n.h.^[c]”. For the same molecule, the “cleavage of the alkyl residue by esterase” value with pig liver esterase (PLE) is given as “no cleavage of the alkyl residue”.

As usually defined, the CC50 is the concentration that lowers cell viability or growth by half.
